Experiment [1] concerns SiHa. Kind of experiment: Cell viability, trypan blue cell count assay. The conditions noted are these: Homo sapiens, SiHa (cervical, wild-type p53 inactivated by E6), 100% = untreated cells. Format: cell-based.
Experiment [2] relates to p53 protein. The experiment can be described thus: p53 protein stability, pulse-chase with cycloheximide in H460. Format: cell-based, human.
Experimental: Cells were treated with 0.05 μg/ml fenbendazole or mebendazole for 24 h. After this, control (mock-treated) and drug-treated H460 cells were incubated with 10 μg/ml cycloheximide in drug-free medium for different times and then processed to obtain total cell extracts. Finally, samples were denatured by boiling them in SDS-loading buffer (100 mM Tris, pH 6.8; 2% SDS; 0.1% bromphenol blue; 10% glycerol; 25 μM β-mercaptoethanol) and loaded onto a 10% SDS-polyacrylamide gel. Blots were probed with anti-p53 monoclonal antibody B p53-12 (Santa Cruz Biotechnology, Inc.) and anti-actin monoclonal antibody (Amersham). The immunocomplexes were detected using the Enhanced Chemiluminescence kit according to the manufacturer's directions as described above. The intensities of the bands were quantitated with a PhosphoImager using ImageQuant™ Software (Molecular Dynamics, Sunnyvale, Calif.).
H460 cells were treated with 0.05 μg/ml FZ for 24 hr, and then both untreated control and treated cells were washed with PBS and treated with 24 μg/ml cyclohexamide. After that, cells were harvested at different times. The total cell protein was extracted and analyzed on a 10% polyacrylamide-gel, followed by Western blot analysis using p53 and actin monoclonal antibodies. […]
Data from the pulse-chase experiments were quantitated with a PhosphoImager using ImageQuant™ software. […]
Experiment [3] deals with H322. Kind of experiment: Cell viability, trypan blue cell count assay. Format: cell-based. Further details: dose or concentration left out as unconfirmed. The conditions noted are these: Homo sapiens, NCI-H322, read-out: % Cell Viability. The protocol: (§1) All cell lines were grown in RPMI 1640 medium supplemented with 5% fetal bovine serum and 5% CO2. All experiments were done when the cells were 70% confluent. For cell growth measurements, 5×10^4 cells were plated in each well of six-well plates. Control and BZ-treated (0.05 μg/ml) cells were trypsinized and counted using a hemocytometer. Experiments were done in triplicate and the mean and standard deviation were determined by standard methods.
(§2) To further investigate the relationship between the induction of functional p53 and the subsequent apoptosis mediated by these drugs, the inventors posited that if BZs require wild-type p53 in order to exert their effect, then fenbendazole and mebendazole would not be cytotoxic to the many tumor lines producing a mutated p53 protein. To investigate this possibility, human cell lines derived from NSCLC origins of differing p53 status were further analyzed by a 5-day cell growth assay. The cells were plated onto a six-well plate, and the viability of the cells was determined by trypan blue exclusion. Cells were counted on a hemocytometer. The values shown are the means ±standard deviation of triplicate samples. Duplicate experiments gave similar results. H322 is a human lung adenocarcinoma line that produces a mutant p53 protein. […] However, fenbendazole and mebendazole induced nuclear accumulation of p53 only in the H460 cell line, which carries wild-type p53 genes. […] Cells were exposed to FZ (filled bar) or MZ (hatched bar) for 24 hr. A concentration of 0.05 μg/ml FZ and MZ was used. An immunoblot analysis of nuclear p53 was also performed to determine whether these drugs induced the production of p53. Equal amounts of protein extracts from each cell line before and after treatment were used for this analysis.

The test system of experiment [4] is MDA 231. Kind of experiment: Cell viability, trypan blue cell count assay. The conditions noted are these: Homo sapiens, MDA-MB-231, read-out: % Cell Viability. Further details: dose or concentration left out as unconfirmed. The experiment is classed as cell-based. The protocol:
as §1, §2

Experiment [5] concerns SW480. The experiment can be described thus: Cell viability, trypan blue cell count assay. The experiment is classed as cell-based. Further details: dose or concentration left out as unconfirmed. The conditions noted are these: Homo sapiens, SW480, read-out: % Cell Viability. The protocol:
as §1, §2

Experiment [6] deals with RD. Kind of experiment: Cell viability, trypan blue cell count assay. The conditions noted are these: Homo sapiens, read-out: % Cell Viability. Also noted: dose or concentration left out as unconfirmed. The experiment is classed as cell-based. The protocol: as §1, §2
Experiment [7] relates to p53 protein. The experiment can be described thus: p53 induction, immunoblot analysis of nuclear extracts. Format: cell-based, human. The conditions noted are these: H460; 0.05 μg/ml, exposure 1 to 24 hr. The protocol:
(§3) Cells were grown in 6-cm dishes, cultured, and treated as described above. To prepare the whole-cell lysates, the medium was removed and cells were washed twice with ice-cold Tris-buffered saline (TBS) (150 mM NaCl, 10 mM Tris; pH 7.6) and lysed with 0.5 ml of lysis buffer (10 mM Tris, 150 mM NaCl, 1% Triton X-100, 5 mM EDTA, 25 mM glycerphosphate, 1 mM phenylmethylsulphonyl fluoride (PMSF), 2 mM benzamidine, […], and 1 mM sodium orthovanadate) for 15 min. The lysed cells were then transferred to 1.5 ml microtubes, centrifuged at 15,000×g for 10 min at 4° C., and the supernatants collected mixed with Laemmli's sample buffer and subjected to western blot analysis as described elsewhere (Nare et al., 1994). Blots were probed with anti-p53 monoclonal antibody Bp53-12 (Santa Cruz Biotechnology, Inc.) and the immunocomplex was detected by the Enhanced Chemiluminescence kit according to the manufacturer's directions (Amersham).
Cell extracts were prepared from H460 cells exposed to 0.05 μg/ml FZ or MZ for various durations (1 to 24 hr). The effect of FZ and MZ on the nuclear accumulation of p53 appeared to be gradual and was not significant within the first hour of exposure. […] The appearance of p53 in response to drug treatment also coincided with the initiation of apoptosis, which was detectable by 24 hr, as well as shown earlier by TdT FACS analysis. […] Total RNA was extracted and […] was used for the analysis. p53 protein was detected by immunoblot analysis.

Experiment [8] concerns Saos-2. Kind of experiment: Cell viability, trypan blue cell count assay. The experiment is classed as cell-based. The conditions noted are these: Homo sapiens, Saos-2 (osteosarcoma, p53 deleted), 100% = untreated cells.
In experiment [9] the test system is p53, p21, MDM2, Bcl-2, Cyclin A, Cyclin D, Cdc 2, Bcl-XL, Bax, Rb and Cdk-2. The experiment can be described thus: Western blot of proteins of apoptotic pathways in H460 whole-cell extracts. The conditions noted are these: 0.05 μg/ml for 24 hr. Format: cell-based, human. The protocol: as §3
To rule out the possibility that FZ and MZ have an effect on other proteins known to have a role in various apoptotic pathways, the inventors evaluated the effect of these drugs on a panel of such proteins. […] Specifically, the levels of these proteins were evaluated by Western blot analyses before and after exposure to 0.05 μg/ml FZ or MZ for 24 hr using whole-cell extracts. […] The protein level of the phosphorylated form of Rb also remained unchanged after treatment.
(In general: A western blot detects proteins with antibodies after separation by electrophoresis.)

As a reminder, the viability is a read-out of living cells in per cent, often relative to untreated cells.

`COC(=O)Nc1nc2ccc(Sc3ccccc3)cc2[nH]1` [Fenbendazole, methy 5-(phenylthio)-2-benzimidazole-2-carbamate]: the figures for the viability at 0.05 µg/mL in experiment [1] and in [8] were 94.5 ± 7.4% and 76.5 ± 5.9%, respectively. The “effect on half-life of the p53 protein” value in experiment [2] is listed as “prolong the half-life”. The viability in experiment [3] is 65.9 ± 4.9%; in [4], 65.3 ± 5%; in experiment [5] it was 70.6 ± 7.6%; in experiment [6] it was 78.7 ± 12%. Moreover, the “time at which nuclear accumulation of p53 became significantly detectable” value in experiment [7] was “about 16 hr”. Moreover, the “time at which nuclear accumulation of p53 peaked” value in [7] was 24 h. Moreover, in [9], the “levels of Bcl-2, Cyclin A, Cyclin D, Cdc 2, Bcl-XL, Bax, Rb and Cdk-2” value was “no changes”. Besides, the “levels of nuclear p53, p21 and MDM2” value in experiment [9] is recorded as “enhanced”.
Turning to `COC(=O)Nc1nc2ccc(C(=O)c3ccccc3)cc2[nH]1` [Mebendazole, Methyl 5-benzoylbenzimidazole-2-carbamate], the viability at 0.05 µg/mL was 91.3 ± 8.6% in experiment [1] and 65.4 ± 10.1% in experiment [8]. The “effect on half-life of the p53 protein” value in experiment [2] is recorded as “prolong the half-life”. The viability in experiment [3] came out at 68.5 ± 3.7%; in [4] it was 66.2 ± 15.8%; in experiment [5], 63.6 ± 13.3%; in experiment [6], 72.2 ± 2.8%. Further, in [7], the “time at which nuclear accumulation of p53 became significantly detectable” value is recorded as “about 16 hr”. In experiment [7], the “time at which nuclear accumulation of p53 peaked” value was 24 h. Besides, in experiment [9], the “levels of Bcl-2, Cyclin A, Cyclin D, Cdc 2, Bcl-XL, Bax, Rb and Cdk-2” value is recorded as “no changes”. Further, the “levels of nuclear p53, p21 and MDM2” value in [9] is “enhanced”.

For the origin of these results see US7423015B1, “Antihelminthic drugs as a treatment for hyperproliferative diseases” (Board of Regents, The University of Texas System, priority 2001, dated 2008).
